Assay results: article PMC2243256 (Applied Microbiology and Biotechnology, 2008)

Biological target: T1, PuORh (putrescine oxidase) (Rhodococcus erythropolis, UniProt B0F9F6)
T1 sequence (B0F9F6 1-453): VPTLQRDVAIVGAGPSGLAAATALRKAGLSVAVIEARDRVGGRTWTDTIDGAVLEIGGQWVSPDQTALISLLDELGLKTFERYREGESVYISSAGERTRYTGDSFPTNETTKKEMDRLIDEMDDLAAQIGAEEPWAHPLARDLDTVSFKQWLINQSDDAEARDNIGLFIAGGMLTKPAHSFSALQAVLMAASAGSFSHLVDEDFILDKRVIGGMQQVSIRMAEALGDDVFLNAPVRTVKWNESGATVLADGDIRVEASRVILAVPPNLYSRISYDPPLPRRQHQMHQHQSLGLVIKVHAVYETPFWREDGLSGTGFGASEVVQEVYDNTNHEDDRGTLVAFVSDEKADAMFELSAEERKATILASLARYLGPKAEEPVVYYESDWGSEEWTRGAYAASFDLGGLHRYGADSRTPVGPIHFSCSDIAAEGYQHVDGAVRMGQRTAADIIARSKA
Experiment: absorbance spectrum, release by trichloroacetic acid and heat
Type: binding
Conditions: non-covalent; pH 8.0, 25°C for spectra

Cc1cc2nc3c(=O)[nH]c(=O)nc-3n(C[C@H](O)[C@H](O)[C@H](O)COP(=O)(O)OP(=O)(O)OC[C@H]3O[C@@H](n4cnc5c(N)ncnc54)[C@H](O)[C@@H]3O)c2cc1C [FAD]
absorbance spectrum, release by trichloroacetic acid and heat: the FAD cofactor in PuORh, like in PuOMr, is not covalently bound
